We go through 25 compounds from patent US20230278984A1 (Global Blood Therapeutics, Inc., priority 2020, published 2023).

The test deals with T1, Human pyruvate kinase R (PKR) (Homo sapiens, UniProt P30613).
T1 construct: Human pyruvate kinase R (PKR), residues 14-574; 6x-His (N, cleaved yes); 8x-Arg (N, cleaved yes); SUMO (N, cleaved yes); host or cells: E. coli
The test can be described thus: Biochemical assay for activation of pyruvate kinase R (Kinase-Glo luminescence measurement of ATP generation). Particulars: for AC50: PKR biochemical assay, 0.1 nM PKR, 0.3 mM ADP, 2 mM FBP, 0.1 mM PEP; for Emax: maximal activation level relative to the activation level achieved by the literature compound AG-348 @ 10 μM. The procedure: Human pyruvate kinase R (PKR), residues 14-574, and human pyruvate kinase M2, residues 1-531, were cloned into expression plasmids and obtained from ATUM Bio (Newark, Calif.). Proteins were translated as fusions with 6×-His, 8×-Arg, and SUMO at the N-terminus. A third construct of human PKR was truncated, residues 50-574, and similarly cloned for use in crystallography experiments. All proteins were cloned, expressed in E. coli, and purified using similar protocols. Cells were grown at 30° C. in Luria-Bertani broth supplemented with 0.4% glucose to OD600=0.8 and induced with 0.4 mM IPTG at 16° C. for 18 hours. Cells were harvested by centrifugation, resuspended in 50 mM potassium phosphate pH 8.0, 500 mM NaCl, 25 mM imidazole pH 8.0, and 3 mM (3-mercaptoethanol. Cells were lysed using a LM20 microfluidizer from Microfluidics (Westwood, Mass.). The crude lysate was immediately supplemented with 0.2 mM phenylmethylsulfonyl fluoride (PMSF) and centrifuged at 20,000 g for 20 minutes. The soluble fraction was subsequently incubated with 2 mL Ni-NTA (GE Healthcare) per 1,000 ODs for 1 hour at 4° C. Following incubation with the Ni-NTA resin, lysate was removed by pelleting resin at 2,500 g for 3 minutes and washed 3 times with 9 bed volumes of 50 mM potassium phosphate pH 8.0, 500 mM NaCl, 25 mM imidazole, and 3 mM 3-mercaptoethanol. Following the batch wash Ni-NTA resin was loaded onto a gravity column and His-tagged protein was eluted with 6 bed volumes of 10 mM Tris/HCl pH 8.0, 200 mM NaCl, 500 mM imidazole, and 3 mM (3-mercaptoethanol. Eluted protein was dialyzed overnight against 10 mM Tris/HCl pH 8.0, 200 mM NaCl, and 1 mM DTT and the 6×-His-8×-Arg-SUMO-tag was cleaved using a 20:1 molar ratio of protein:3C protease. The protein was purified by anion exchange chromatography on a HiTrapQ or MonoQ 10/100 GL column (GE Healthcare) via a linear NaCl gradient and twice by size exclusion chromatography using a Superdex S200 26/60 column (GE Healthcare) run in 10 mM Tris/HCl pH 8.0, 200 mM NaCl, 10 mM MgCl2, 1 mM DTT. Proteins were concentrated to −12 mg/mL for crystallization and flash frozen for storage.
Biochemical Assay for Activation of Pyruvate Kinase R
Activation of pyruvate kinase R (PKR) and pyruvate kinase M2 (PKM2) were measured using a luminescence based measurement of ATP generation and the Kinase-Glo luminescent kinase reagent kit.
For orientation: Kinase-Glo measures the ATP left after a reaction by luminescence.

Molecules are shown by their SMILES.

T1 sequence (P30613 14-574): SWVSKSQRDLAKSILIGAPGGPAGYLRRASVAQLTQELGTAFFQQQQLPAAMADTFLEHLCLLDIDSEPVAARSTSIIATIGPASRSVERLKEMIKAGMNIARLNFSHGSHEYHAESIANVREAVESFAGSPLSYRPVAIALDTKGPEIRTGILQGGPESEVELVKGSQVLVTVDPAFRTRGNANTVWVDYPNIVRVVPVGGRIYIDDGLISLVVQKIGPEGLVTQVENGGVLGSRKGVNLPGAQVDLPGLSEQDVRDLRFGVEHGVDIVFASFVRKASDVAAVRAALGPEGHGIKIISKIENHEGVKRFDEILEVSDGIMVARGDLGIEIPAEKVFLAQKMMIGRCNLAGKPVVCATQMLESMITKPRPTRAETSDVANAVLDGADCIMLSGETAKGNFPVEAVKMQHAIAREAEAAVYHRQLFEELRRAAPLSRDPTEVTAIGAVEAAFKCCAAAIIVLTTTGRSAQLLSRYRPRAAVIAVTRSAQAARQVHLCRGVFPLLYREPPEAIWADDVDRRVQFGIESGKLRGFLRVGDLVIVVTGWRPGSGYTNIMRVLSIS

In general, AC50 refers to the midpoint of the concentration-response curve, whichever way the signal moves. As usually defined, the Emax is the maximal effect, on the per cent scale that the assay sets. `Cc1nc(CNC(=O)NCc2ncnn2-c2ccc3ncc(F)cc3c2)n(-c2ccc(Cl)c(F)c2)n1` [Compound 46, 3-{[1-(4-chloro-3-fluorophenyl)-3-methyl-1H-1,2,4-triazol-5-yl]methyl}-1-{[1-(3-fluoroquinolin-6-yl)-1H-1,2,4-triazol-5-yl]methyl}urea] registered an AC50 of 38 nM and an Emax of 74%.
Compound `Cc1nc(CNC(=O)NCc2ncnn2-c2cc(F)c3cccnc3c2)n(-c2ccc(Cl)c(F)c2)n1` [Compound 47, 1-{[1-(4-chloro-3-fluorophenyl)-3-methyl-1H-1,2,4-triazol-5-yl]methyl}-3-{[1-(5-fluoroquinolin-7-yl)-1H-1,2,4-triazol-5-yl]methyl}urea] showed an AC50 of 42 nM and a maximal effect (Emax) of 85%.
On to `Cc1nc(CNC(=O)NCc2ncnn2-c2ccc3cc(F)cnc3c2)n(-c2ccc(Cl)c(F)c2)n1` [Compound 48, 1-{[1-(4-chloro-3-fluorophenyl)-3-methyl-1H-1,2,4-triazol-5-yl]methyl}-3-{[1-(3-fluoroquinolin-7-yl)-1H-1,2,4-triazol-5-yl]methyl}urea], for which half-maximal activity (AC50) was put at 83 nM and the Emax came to 74%.
In turn, `CCc1nc(CNC(=O)NCc2ncnn2-c2ccc3nccnc3c2)n(-c2ccc(Cl)c(F)c2)n1` [Compound 49, 1-{[1-(4-chloro-3-fluorophenyl)-3-ethyl-1H-1,2,4-triazol-5-yl]methyl}-3-{[1-(quinoxalin-6-yl)-1H-1,2,4-triazol-5-yl]methyl}urea] displayed an AC50 of 150 nM and an Emax of 79%.
For `COC(=O)c1cc(-n2ncnc2CNC(=O)NCc2nc(C)nn2-c2ccc(Cl)c(F)c2)ccc1Cl` [Compound 50, methyl 2-chloro-5-(5-{[({[1-(4-chloro-3-fluorophenyl)-3-methyl-1H-1,2,4-triazol-5-yl]methyl}carbamoyl)amino]methyl}-1H-1,2,4-triazol-1-yl)benzoate], in that order: 32 nM and 64%.
In the same order, the values of `Cc1nc(CNC(=O)NCc2ncnn2-c2ccc3c(cnn3C)c2)n(-c2ccc(Cl)c(F)c2)n1` [Compound 51, 1-{[1-(4-chloro-3-fluorophenyl)-3-methyl-1H-1,2,4-triazol-5-yl]methyl}-3-{[1-(1-methyl-1H-indazol-5-yl)-1H-1,2,4-triazol-5-yl]methyl}urea] are 66 nM and 75%.
In the same order, the values of `Cn1ncc2cc(-n3ncnc3CNC(=O)NCc3ncnn3-c3ccc(Cl)c(F)c3)ccc21` [Compound 52, 1-{[1-(4-chloro-3-fluorophenyl)-1H-1,2,4-triazol-5-yl]methyl}-3-{[1-(1-methyl-1H-indazol-5-yl)-1H-1,2,4-triazol-5-yl]methyl}urea] are 24 nM and 37%.
With `Cc1nc(CN(C)C(=O)NCc2ncnn2-c2ccc3cccnc3c2)n(-c2ccc(Cl)c(F)c2)n1` [Compound 53, 1-{[1-(4-chloro-3-fluorophenyl)-3-methyl-1H-1,2,4-triazol-5-yl]methyl}-1-methyl-3-{[1-(quinolin-7-yl)-1H-1,2,4-triazol-5-yl]methyl}urea], half-maximal activity (AC50) was put at 120 nM and the Emax was 73%.
For `Cc1nc(CNC(=O)N(C)Cc2ncnn2-c2ccc3cccnc3c2)n(-c2ccc(Cl)c(F)c2)n1` [Compound 54, 3-{[1-(4-chloro-3-fluorophenyl)-3-methyl-1H-1,2,4-triazol-5-yl]methyl}-1-methyl-1-{[1-(quinolin-7-yl)-1H-1,2,4-triazol-5-yl]methyl}urea], in that order: 85 nM and 71%.
For `Cc1nc(CNC(=O)NCc2nc(C3CC3)nn2-c2ccc3cccnc3c2)n(-c2ccc(Cl)c(F)c2)n1` [Compound 55, 3-{[1-(4-chloro-3-fluorophenyl)-3-methyl-1H-1,2,4-triazol-5-yl]methyl}-1-{[3-cyclopropyl-1-(quinolin-7-yl)-1H-1,2,4-triazol-5-yl]methyl}urea], in that order: 79 nM and 90%.
For `O=C(NCc1nnnn1-c1ccc(F)c(F)c1)NCc1nnnn1-c1ccc(F)c(F)c1` [Compound 56, 1,3-bis({[1-(3,4-difluorophenyl)-1H-1,2,3,4-tetrazol-5-yl]methyl})urea], in that order: 1100 nM and 106%.
For the compound `Cc1ccc(-n2ncnc2CNC(=O)NCc2ncnn2-c2ccc(C)c(C)c2)cc1C` [Compound 57, 1,3-bis({[1-(3,4-dimethylphenyl)-1H-1,2,4-triazol-5-yl]methyl})urea], the activity was half-maximal at 64 nM (AC50) and the Emax was 87%.
For `Cc1ccc(-n2nnnc2CNC(=O)NCc2nnnn2-c2ccc(C)c(F)c2)cc1F` [Compound 58, 1,3-bis({[1-(3-fluoro-4-methylphenyl)-1H-1,2,3,4-tetrazol-5-yl]methyl})urea], in that order: 220 nM and 88%.
In the same order, the values of `Cc1cc(-n2nnnc2CNC(=O)NCc2nnnn2-c2ccc(Cl)c(C)c2)ccc1Cl` [Compound 59, 1,3-bis({[1-(4-chloro-3-methylphenyl)-1H-1,2,3,4-tetrazol-5-yl]methyl})urea] are 1200 nM and 86%.
For `O=C(NCc1nnnn1-c1ccc(Cl)c(Cl)c1)NCc1nnnn1-c1ccc(Cl)c(Cl)c1` [Compound 60, 1,3-bis({[1-(3,4-dichlorophenyl)-1H-1,2,3,4-tetrazol-5-yl]methyl})urea], in that order: 180 nM and 82%.
Regarding `O=C(NCc1ncnn1-c1ccc(Cl)cc1)NCc1ncnn1-c1ccc(Cl)cc1` [Compound 61, 1,3-bis({[1-(4-chlorophenyl)-1H-1,2,4-triazol-5-yl]methyl})urea], the activity was half-maximal at 11 nM (AC50) and the Emax was 36%.
Consider `Cc1cc(-n2nnnc2CNC(=O)NCc2nnnn2-c2ccc(F)c(C)c2)ccc1F` [Compound 62, 1,3-bis({[1-(4-fluoro-3-methylphenyl)-1H-1,2,3,4-tetrazol-5-yl]methyl})urea], for which the activity was half-maximal at 210 nM (AC50) and the Emax came out at 66%.
For `O=C(NCc1nnnn1-c1ccc(Cl)c(F)c1)NCc1nnnn1-c1ccc(Cl)c(F)c1` [Compound 63, 1,3-bis({[1-(4-chloro-3-fluorophenyl)-1H-1,2,3,4-tetrazol-5-yl]methyl})urea], in that order: 63 nM and 99%.
For `O=C(NCc1ncnn1-c1ccc(F)c(Cl)c1)NCc1ncnn1-c1ccc(F)c(Cl)c1` [Compound 64, 1,3-bis({[1-(3-chloro-4-fluorophenyl)-1H-1,2,4-triazol-5-yl]methyl})urea], in that order: 120 nM and 46%.
Turning to `COc1ccc(-n2ncnc2CNC(=O)NCc2ncnn2-c2ccc(OC)cc2)cc1` [Compound 65, 1,3-bis({[1-(4-methoxyphenyl)-1H-1,2,4-triazol-5-yl]methyl})urea], the activity was half-maximal at 1800 nM (AC50) and the Emax was determined as 62%.
For `O=C(NCc1ncnn1-c1ccc(Cl)c(F)c1)NCc1ncnn1-c1ccc(Cl)c(F)c1` [Compound 66, 1,3-bis({[1-(4-chloro-3-fluorophenyl)-1H-1,2,4-triazol-5-yl]methyl})urea], in that order: 13 nM and 41%.
In the same order, the values of `Cc1ccc(-n2ncnc2CNC(=O)NCc2ncnn2-c2ccc(C)c(F)c2)cc1F` [Compound 67, 1,3-bis({[1-(3-fluoro-4-methylphenyl)-1H-1,2,4-triazol-5-yl]methyl})urea] are 44 nM and 58%.
In the same order, the values of `O=C(NCc1ncnn1-c1cc(F)cc(Cl)c1)NCc1ncnn1-c1cc(F)cc(Cl)c1` [Compound 68, 1,3-bis({[1-(3-chloro-5-fluorophenyl)-1H-1,2,4-triazol-5-yl]methyl})urea] are 3100 nM and 65%.
`COc1ccc(-n2nnnc2CNC(=O)NCc2nnnn2-c2ccc(OC)cc2)cc1` [Compound 69, 1,3-bis({[1-(4-methoxyphenyl)-1H-1,2,3,4-tetrazol-5-yl]methyl})urea]: the activity was half-maximal at 540 nM (AC50) and the maximal response (Emax) is 92%.
`O=C(NCc1nnnn1-c1ccc(F)c(Cl)c1)NCc1nnnn1-c1ccc(F)c(Cl)c1` [Compound 70, 1,3-bis({[1-(3-chloro-4-fluorophenyl)-1H-1,2,3,4-tetrazol-5-yl]methyl})urea]: half-maximal activity (AC50) was put at 110 nM and the Emax is 64%.
